{"source": "paper PMC5564622", "about": "(Oncotarget, 2017)", "key": {"LoVo cells": {"tested_on": "LoVo cells", "assay": "cells", "format": "cell-based, human", "experimental": "(§1) The human colon cancer cell lines LoVo, HCT8, Caco-2 were obtained from the Cell Bank of the Chinese Academy of Sciences. DOX-selected ABCB1-overexpression LoVo/ADR, HCT8/ADR, Caco-2/ADR cell lines were purchased from Shanghai Yan Sheng Industrial Co., LTD. […] All the DOX-selected ABCB1-overexpression cells were seeded in a medium containing 1μM of DOX to maintain their drug resistance phenotype."}, "[1]": {"tested_on": "HCT8/ADR cells (ABCB1-overexpressing)", "experimental": "as §1"}, "HCT8 cells": {"tested_on": "HCT8 cells", "assay": "cells", "format": "cell-based, human", "experimental": "as §1"}, "HCT8/pcDNA3.1 cells": {"tested_on": "HCT8/pcDNA3.1 cells", "assay": "cells", "format": "cell-based, human", "experimental": "(§2) HCT8/pcDNA3.1 and HCT8/ABCB1 cells were established by transfecting HCT8 with empty pcDNA3.1 or vector containing the full length ABCB1, and were cultured in medium with 2 mg/ml G418."}, "[2]": {"tested_on": "LoVo/ADR cells (ABCB1-overexpressing)", "experimental": "as §1"}, "[3]": {"tested_on": "HCT8/ABCB1 cells (ABCB1-transfected)", "experimental": "as §2"}, "[4]": {"tested_on": "LoVo/ADR, HCT8/ADR, HCT8/ABCB1 and Caco-2/ADR cells and parental cells", "assay": "CCK-8 cytotoxicity of BU (non-toxic concentrations)", "format": "cell-based, human", "conditions": "MDR and parental cells"}, "[5]": {"assay": "Toxicity analysis in xenograft mice", "format": "in vivo, athymic nude mice (BALB/c-nu/nu)", "method": "Normal tissues (heart, liver, lung, spleen, kidney, intestine) were harvested for H&E histology studies. Venous blood samples were collected in EDTA-coated tubes for hematology studies. Samples were analyzed for white blood cells (WBC), red blood cells (RBC), platelets (PLT), aspartate aminotransferase (AST), alanine aminotransferase (ALT) and blood urea nitrogen (BUN) in the clinical laboratory at our hospital."}, "MDR in colon cancer": {"tested_on": "MDR in colon cancer", "assay": "Preliminary experiment on Chansu ingredients and MDR", "format": "cell-based", "conditions": "six active ingredients of Chansu"}, "HCT8/ADR xenografts": {"tested_on": "HCT8/ADR xenografts", "assay": "HCT8/ADR nude mouse xenograft model", "conditions": "for tumor size versus saline: q3d×5, alone"}, "[6]": {"tested_on": "HCT8/ADR cells (ABCB1-overexpressing)", "assay": "cells", "conditions": "Homo sapiens", "experimental": "as §1"}, "[7]": {"tested_on": "LoVo/ADR cells (ABCB1-overexpressing)", "assay": "cells", "conditions": "Homo sapiens", "experimental": "as §1"}, "ABCB1": {"tested_on": "ABCB1", "assay": "ABCB1-mediated drug transport assay (Caco-2 monolayer)", "conditions": "human", "experimental": "Caco-2 cells were seeded on a Costar 12-well Transwell Permeable Supports plates (0.4 μm pore size, 1.13 cm^2 of growth area, 12 mm diameter) at a density of 5.0×10^4cells/cm^2. Replaced the medium every other day and incubate plates at 37°C for 21 days. Transepithelial electrical resistance (TEER) and Lucifer yellow permeability (LY%) was measured to evaluate the integrity of the monolayer. […] Cells were washed 3 times with HBSS buffer and preincubated for 15 min. Test drugs were diluted in HBSS with 0.5 ml added to the apical side (A) or 1.5 ml to the basolateral side (B). […] Analyte concentrations were determined by Thermo Varioskan Flash.\nThe apparent permeability coefficient (Papp) was determined for both A to B and B to A directions by the following formula: Papp=dC/dt×V/AC0 in which A is the area of filter membrane, C0 represents the initial concentration of drug, dC/dt is the change of concentration of drug in the period of incubation time, and V is the volume of the receiver chamber. The efflux ratio (ER) was calculated from: ER=Papp(B to A)/Papp (A to B)"}, "[8]": {"tested_on": "HCT8/ABCB1 cells (ABCB1-transfected)", "assay": "cells", "conditions": "Homo sapiens", "experimental": "as §2"}, "[9]": {"conditions": "Homo sapiens, HCT-8, 48 h, read-out: IC50 of DOX"}, "[10]": {"conditions": "HCT-8, 48 h, read-out: IC50 of DOX"}, "[11]": {"conditions": "Homo sapiens, HCT-8, read-out: IC50 of MIT"}}, "note": "Where two headings read alike, the source gives them in different places.", "data": [{"molecule": "5(6)-carboxy-2′,7′-dichlorofluorescein [CDCF]", "values": [{"measurement": "IC50", "setting": "LoVo cells; CDCF alone, read-out: IC50 of CDCF", "value": "1020 ± 110", "unit": "µM"}, {"measurement": "IC50", "setting": "[1]; read-out: IC50 of CDCF, HCT8/ADR, CDCF alone", "value": "960 ± 160", "unit": "µM"}, {"measurement": "IC50", "setting": "HCT8 cells; HCT8, CDCF alone, read-out: IC50 of CDCF", "value": "700 ± 100", "unit": "µM"}, {"measurement": "IC50", "setting": "HCT8/pcDNA3.1 cells; HCT8/pcDNA3.1, CDCF alone, read-out: IC50 of CDCF", "value": "910 ± 180", "unit": "µM"}, {"measurement": "IC50", "setting": "[2]; read-out: IC50 of CDCF, LoVo/ADR, CDCF alone", "value": "1130 ± 50", "unit": "µM"}, {"measurement": "IC50", "setting": "[3]; read-out: IC50 of CDCF, HCT8/ABCB1, CDCF alone", "value": "1080 ± 140", "unit": "µM"}]}, {"molecule": "C[C@]12CC[C@H](O)C[C@H]1CC[C@@H]1[C@@H]2CC[C@]2(C)[C@@H](c3ccc(=O)oc3)CC[C@]12O", "note": "[BU, Bufalin]", "values": [{"measurement": "non-toxic concentration (survival rate higher than 80%), maximum for reversal assays", "setting": "[4]", "value": "up to 20 nM"}, {"measurement": "toxicity on mice", "setting": "[5]; BU 0.1mg/kg", "value": "did not induce any toxicity"}, {"measurement": "effect on MDR", "setting": "MDR in colon cancer", "value": "could effectively reverse MDR"}, {"measurement": "tumor size versus saline", "setting": "HCT8/ADR xenografts; BU 0.1 mg/kg, i.p.", "value": "No significant difference"}, {"measurement": "ABCB1 expression in tumor tissue (IHC)", "setting": "HCT8/ADR xenografts; HCT8/ADR xenografts, BU 0.1 mg/kg", "value": "inhibit ABCB1 expression in vivo"}]}, {"molecule": "COc1cccc2c1C(=O)c1c(O)c3c(c(O)c1C2=O)C[C@@](O)(C(=O)CO)C[C@@H]3O[C@H]1C[C@H](N)[C@H](O)[C@H](C)O1", "note": "[DOX, doxorubicin]", "values": [{"measurement": "fold-reversal of MDR", "setting": "LoVo cells; DOX alone (reference)", "value": 1.00}, {"measurement": "IC50", "setting": "LoVo cells; Homo sapiens, 48 h, read-out: IC50 of DOX", "value": "1.87 ± 0.15", "unit": "µM"}, {"measurement": "fold-reversal of MDR", "setting": "[1]", "value": "7.20 ± 0.80 (1.00)"}, {"measurement": "fold-reversal of MDR", "setting": "HCT8 cells; HCT8, DOX alone (reference)", "value": 1.00}, {"measurement": "IC50", "setting": "HCT8 cells; [9]", "value": "0.55 ± 0.14", "unit": "µM"}, {"measurement": "significant toxicity: deaths", "setting": "[5]; DOX 0.5 mg/kg and DOX 1.0 mg/kg groups, with weight loss", "value": "2 deaths out of 6 mice"}, {"measurement": "alanine transaminase (ALT) and aspartate transaminase (AST)", "setting": "[5]; high concentration DOX (0.5, 1.0 mg/kg)", "value": "significantly elevated"}, {"measurement": "tumor size versus saline", "setting": "HCT8/ADR xenografts; DOX 0.1 mg/kg, i.p.", "value": "No significant difference"}, {"measurement": "tumor growth inhibition", "setting": "HCT8/ADR xenografts; DOX 0.1, 0.5, 1.0 mg/kg, i.p., q3d×5", "value": "inhibit tumor growth with a concentration-dependent pattern"}, {"measurement": "IC50", "setting": "[6]; [10]", "value": "7.2 ± 0.8", "unit": "µM"}, {"measurement": "IC50", "setting": "[7]; 48 h, read-out: IC50 of DOX", "value": "16.3 ± 0.54", "unit": "µM"}, {"measurement": "fold-reversal of MDR", "setting": "HCT8/pcDNA3.1 cells; HCT8/pcDNA3.1, DOX alone (reference)", "value": 1.00}, {"measurement": "IC50", "setting": "HCT8/pcDNA3.1 cells; [9]", "value": "0.67 ± 0.12", "unit": "µM"}, {"measurement": "Papp A→B at 120 min, 20 μM", "setting": "ABCB1", "value": "0.68 ± 0.18", "unit": "×10⁻⁶ cm/s"}, {"measurement": "Papp B→A at 120 min, 20 μM", "setting": "ABCB1", "value": "3.91 ± 0.68", "unit": "×10⁻⁶ cm/s"}, {"measurement": "efflux ratio at 120 min, 20 μM", "setting": "ABCB1", "value": 5.75}, {"measurement": "IC50", "setting": "[8]; [10]", "value": "13.3 ± 1.15", "unit": "µM"}, {"measurement": "fold-reversal of MDR", "setting": "[2]", "value": "16.28 ± 0.54 (1.00)"}, {"measurement": "fold-reversal of MDR", "setting": "[3]", "value": "13.35 ± 1.15 (1.00)"}]}, {"molecule": "O=C1c2c(O)ccc(O)c2C(=O)c2c(NCCNCCO)ccc(NCCNCCO)c21", "note": "[MIT, mitoxantrone]", "values": [{"measurement": "IC50", "setting": "LoVo cells; Homo sapiens, read-out: IC50 of MIT", "value": "1.05 ± 0.09", "unit": "µM"}, {"measurement": "IC50", "setting": "HCT8 cells; [11]", "value": "0.85 ± 0.15", "unit": "µM"}, {"measurement": "IC50", "setting": "[6]; HCT-8, read-out: IC50 of MIT", "value": "1.02 ± 0.28", "unit": "µM"}, {"measurement": "IC50", "setting": "[7]; read-out: IC50 of MIT", "value": "1.23 ± 0.08", "unit": "µM"}, {"measurement": "IC50", "setting": "HCT8/pcDNA3.1 cells; [11]", "value": "0.88 ± 0.28", "unit": "µM"}, {"measurement": "IC50", "setting": "[8]; HCT-8, read-out: IC50 of MIT", "value": "1 ± 0.2", "unit": "µM"}]}, {"molecule": "CC(=O)O[C@H]1[C@H]2O[C@]23[C@@H]2CC[C@@H]4C[C@@H](O)CC[C@]4(C)[C@H]2CC[C@]3(C)[C@H]1c1ccc(=O)oc1", "note": "[cinobufagin]", "values": [{"measurement": "effect on MDR", "setting": "MDR in colon cancer", "value": "could effectively reverse MDR"}]}]}
